Columns and labels:
[1] = Intrinsic clearance in rat liver microsomes
[2] = Protein binding in mouse plasma
[3] = Protein binding in rat plasma; format: ADME, cell-free; conditions: read-out: PPB (converted)
[4] = biological target: Bromodomain-containing protein 4 (Homo sapiens, UniProt O60885); test: Inhibition of BRD4 BD2 (unknown origin) using biotinylated JQ1 analog as substrate measured after 20 mins by AlphaLISA assay
[5] = biological target: Bromodomain-containing protein 2 (Homo sapiens, UniProt P25440); test: Inhibition of BRD2 BD1 (unknown origin) using biotinylated JQ1 analog as substrate measured after 20 mins by AlphaLISA assay
[6] = biological target: T1, Bromodomain and PHD finger-containing protein 3 (Homo sapiens, UniProt Q9ULD4); test: Inhibition of BRPF3 (unknown origin) measured after 70 mins by TR-FRET assay
T1 sequence (Q9ULD4 whole entry): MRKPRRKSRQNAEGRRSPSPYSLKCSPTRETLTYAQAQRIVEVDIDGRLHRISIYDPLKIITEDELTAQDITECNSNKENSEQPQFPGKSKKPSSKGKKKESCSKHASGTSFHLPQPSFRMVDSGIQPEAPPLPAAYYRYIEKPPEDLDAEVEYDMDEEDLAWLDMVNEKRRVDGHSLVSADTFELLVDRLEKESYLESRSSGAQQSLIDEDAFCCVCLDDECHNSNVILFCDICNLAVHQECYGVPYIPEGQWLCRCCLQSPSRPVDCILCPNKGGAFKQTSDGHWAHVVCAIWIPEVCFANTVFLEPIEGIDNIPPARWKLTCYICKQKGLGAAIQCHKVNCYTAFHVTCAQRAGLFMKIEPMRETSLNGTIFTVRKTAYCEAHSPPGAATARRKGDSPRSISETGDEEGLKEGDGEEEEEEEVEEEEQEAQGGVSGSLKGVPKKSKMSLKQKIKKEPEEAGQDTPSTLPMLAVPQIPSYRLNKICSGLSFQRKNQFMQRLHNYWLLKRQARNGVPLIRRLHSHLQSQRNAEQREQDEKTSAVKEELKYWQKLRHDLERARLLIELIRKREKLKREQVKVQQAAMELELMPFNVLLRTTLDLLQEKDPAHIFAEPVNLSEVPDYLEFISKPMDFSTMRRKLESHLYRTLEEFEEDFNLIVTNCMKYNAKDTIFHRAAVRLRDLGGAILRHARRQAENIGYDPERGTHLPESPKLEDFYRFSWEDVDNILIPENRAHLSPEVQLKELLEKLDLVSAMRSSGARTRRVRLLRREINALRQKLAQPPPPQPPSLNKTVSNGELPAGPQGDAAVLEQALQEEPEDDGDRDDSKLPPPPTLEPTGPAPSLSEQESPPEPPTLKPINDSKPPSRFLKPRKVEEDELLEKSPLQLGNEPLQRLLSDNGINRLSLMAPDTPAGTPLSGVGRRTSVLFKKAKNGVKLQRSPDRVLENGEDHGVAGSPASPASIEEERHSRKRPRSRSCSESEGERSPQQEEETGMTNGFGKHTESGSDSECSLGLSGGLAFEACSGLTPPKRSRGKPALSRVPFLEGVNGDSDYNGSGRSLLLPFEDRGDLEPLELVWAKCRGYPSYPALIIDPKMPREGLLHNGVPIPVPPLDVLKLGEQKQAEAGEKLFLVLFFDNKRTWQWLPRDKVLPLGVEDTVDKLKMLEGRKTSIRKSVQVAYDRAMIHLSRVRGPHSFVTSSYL

[7] = biological target: SWI/SNF-related matrix-associated actin-dependent regulator of chromatin subfamily A member 4 (Homo sapiens, UniProt P51532); test: Inhibition of His-tagged BRG1 (unknown origin) using biotinylated acetylated peptide as substrate measured after 20 mins by AlphaLISA assay
[8] = biological target: T2, Bromodomain-containing protein 1 (Homo sapiens, UniProt O95696); test: Inhibition of BRD1 (unknown origin) measured after 70 mins by TR-FRET assay
T2 sequence (O95696 whole entry): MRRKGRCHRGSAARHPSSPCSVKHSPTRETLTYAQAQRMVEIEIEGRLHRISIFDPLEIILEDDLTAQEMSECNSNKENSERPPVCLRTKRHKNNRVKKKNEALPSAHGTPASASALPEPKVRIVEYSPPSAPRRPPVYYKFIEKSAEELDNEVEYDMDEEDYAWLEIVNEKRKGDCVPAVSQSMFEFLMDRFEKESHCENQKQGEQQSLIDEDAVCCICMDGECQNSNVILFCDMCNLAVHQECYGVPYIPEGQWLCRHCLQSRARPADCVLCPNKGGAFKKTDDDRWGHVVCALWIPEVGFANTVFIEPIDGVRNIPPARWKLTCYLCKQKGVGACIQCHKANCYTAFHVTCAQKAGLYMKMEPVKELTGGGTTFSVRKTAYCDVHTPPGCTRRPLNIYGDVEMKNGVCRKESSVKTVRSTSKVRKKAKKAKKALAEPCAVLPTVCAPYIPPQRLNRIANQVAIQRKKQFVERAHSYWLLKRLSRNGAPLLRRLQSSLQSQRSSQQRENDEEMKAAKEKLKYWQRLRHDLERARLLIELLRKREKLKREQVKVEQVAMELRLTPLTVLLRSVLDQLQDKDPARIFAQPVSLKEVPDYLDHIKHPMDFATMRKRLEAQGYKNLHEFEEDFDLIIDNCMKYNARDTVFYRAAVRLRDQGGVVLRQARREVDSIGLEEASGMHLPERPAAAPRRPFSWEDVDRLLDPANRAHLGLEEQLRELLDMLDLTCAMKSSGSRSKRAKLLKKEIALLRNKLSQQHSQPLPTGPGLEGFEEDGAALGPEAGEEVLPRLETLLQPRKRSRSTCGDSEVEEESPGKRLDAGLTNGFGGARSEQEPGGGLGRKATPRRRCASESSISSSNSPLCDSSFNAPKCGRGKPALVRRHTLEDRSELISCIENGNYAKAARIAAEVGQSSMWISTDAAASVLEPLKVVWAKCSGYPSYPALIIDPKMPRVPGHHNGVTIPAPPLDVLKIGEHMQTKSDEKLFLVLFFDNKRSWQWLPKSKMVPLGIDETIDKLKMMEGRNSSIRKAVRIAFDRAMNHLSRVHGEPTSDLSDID

[9] = Clearance in rat at 1 mg/kg, iv; format: ADME, organism-based; conditions: in vivo
[10] = Unbound clearance in rat at 1 mg/kg, iv; format: ADME, organism-based; conditions: in vivo

SWI/SNF-related matrix-associated actin-dependent regulator of chromatin subfamily A member 4, sequence (P51532 whole entry): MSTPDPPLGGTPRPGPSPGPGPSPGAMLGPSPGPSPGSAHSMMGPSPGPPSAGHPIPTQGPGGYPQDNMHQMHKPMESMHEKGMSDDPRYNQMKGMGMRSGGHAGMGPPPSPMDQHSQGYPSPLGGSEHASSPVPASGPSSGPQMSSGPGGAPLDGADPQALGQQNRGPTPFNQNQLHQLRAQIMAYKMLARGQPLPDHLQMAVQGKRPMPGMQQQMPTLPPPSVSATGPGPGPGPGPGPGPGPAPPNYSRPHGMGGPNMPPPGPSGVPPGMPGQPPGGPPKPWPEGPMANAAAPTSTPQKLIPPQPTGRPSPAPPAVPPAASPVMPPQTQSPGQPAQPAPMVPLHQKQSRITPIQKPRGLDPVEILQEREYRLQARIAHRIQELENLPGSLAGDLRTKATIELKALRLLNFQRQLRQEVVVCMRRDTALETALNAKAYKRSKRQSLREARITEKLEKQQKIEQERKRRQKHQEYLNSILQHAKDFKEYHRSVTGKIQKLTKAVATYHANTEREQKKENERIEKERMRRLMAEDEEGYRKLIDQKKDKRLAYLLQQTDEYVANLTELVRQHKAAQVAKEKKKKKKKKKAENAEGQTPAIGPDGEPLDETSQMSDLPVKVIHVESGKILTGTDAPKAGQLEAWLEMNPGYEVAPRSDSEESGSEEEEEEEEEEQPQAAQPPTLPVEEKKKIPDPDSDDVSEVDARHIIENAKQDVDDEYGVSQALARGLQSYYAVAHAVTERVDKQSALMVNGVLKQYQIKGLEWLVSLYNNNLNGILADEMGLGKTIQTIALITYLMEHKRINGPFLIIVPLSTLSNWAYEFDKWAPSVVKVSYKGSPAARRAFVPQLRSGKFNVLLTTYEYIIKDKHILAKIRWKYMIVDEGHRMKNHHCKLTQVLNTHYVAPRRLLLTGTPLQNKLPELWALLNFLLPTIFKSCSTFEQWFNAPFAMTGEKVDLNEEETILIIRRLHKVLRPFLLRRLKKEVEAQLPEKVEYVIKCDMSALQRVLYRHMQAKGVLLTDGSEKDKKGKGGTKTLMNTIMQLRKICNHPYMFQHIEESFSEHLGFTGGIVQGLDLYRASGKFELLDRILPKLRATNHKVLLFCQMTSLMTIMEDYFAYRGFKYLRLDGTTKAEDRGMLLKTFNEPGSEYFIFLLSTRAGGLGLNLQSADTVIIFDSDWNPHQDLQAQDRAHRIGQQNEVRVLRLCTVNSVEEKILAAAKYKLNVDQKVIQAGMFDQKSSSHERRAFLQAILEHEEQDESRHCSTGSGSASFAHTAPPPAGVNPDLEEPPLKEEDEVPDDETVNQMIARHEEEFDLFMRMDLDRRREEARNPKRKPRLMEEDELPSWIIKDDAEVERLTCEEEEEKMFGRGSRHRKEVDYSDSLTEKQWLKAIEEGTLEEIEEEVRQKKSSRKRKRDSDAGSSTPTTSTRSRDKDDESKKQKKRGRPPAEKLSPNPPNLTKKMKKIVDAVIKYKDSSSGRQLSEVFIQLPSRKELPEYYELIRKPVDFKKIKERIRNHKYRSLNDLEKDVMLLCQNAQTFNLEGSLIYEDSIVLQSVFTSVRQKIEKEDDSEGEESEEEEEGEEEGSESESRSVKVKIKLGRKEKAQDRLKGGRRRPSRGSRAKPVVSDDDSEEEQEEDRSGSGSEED
Bromodomain-containing protein 2, sequence (P25440 whole entry): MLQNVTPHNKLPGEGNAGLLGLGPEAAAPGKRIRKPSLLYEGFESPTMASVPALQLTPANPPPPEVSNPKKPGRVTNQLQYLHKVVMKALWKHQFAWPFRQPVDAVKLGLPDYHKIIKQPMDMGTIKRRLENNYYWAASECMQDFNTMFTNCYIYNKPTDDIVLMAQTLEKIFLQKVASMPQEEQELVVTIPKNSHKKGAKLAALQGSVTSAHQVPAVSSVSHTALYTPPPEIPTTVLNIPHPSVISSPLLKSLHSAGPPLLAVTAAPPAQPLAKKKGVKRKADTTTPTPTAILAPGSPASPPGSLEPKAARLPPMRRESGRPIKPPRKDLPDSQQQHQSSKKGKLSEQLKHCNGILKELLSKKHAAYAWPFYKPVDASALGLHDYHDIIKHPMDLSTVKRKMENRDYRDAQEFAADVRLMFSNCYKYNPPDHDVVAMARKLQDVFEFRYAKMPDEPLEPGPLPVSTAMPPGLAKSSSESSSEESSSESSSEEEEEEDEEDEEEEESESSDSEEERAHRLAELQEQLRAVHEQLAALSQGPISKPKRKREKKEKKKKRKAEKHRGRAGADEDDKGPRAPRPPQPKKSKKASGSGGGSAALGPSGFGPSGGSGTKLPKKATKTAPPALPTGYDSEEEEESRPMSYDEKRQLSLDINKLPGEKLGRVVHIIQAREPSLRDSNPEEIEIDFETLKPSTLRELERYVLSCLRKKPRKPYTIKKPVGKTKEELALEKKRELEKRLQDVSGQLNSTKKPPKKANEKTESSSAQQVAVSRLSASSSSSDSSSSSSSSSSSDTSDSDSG

**Q.** For `Cc1nnc2n1-c1ccc(-c3ccc(N)nc3)cc1N(c1ccc(Cl)cc1)C[C@H]2C`, which microsomal CLint [1] is on record?
**A.** 26 µL/min/mg

**Q.** What about the fraction unbound [2] of the same molecule?
**A.** 0.02

**Q.** And the fraction unbound [3]?
**A.** 0.04

**Q.** What about the IC50 [4] of the same molecule?
**A.** 3 nM

**Q.** What about the IC50 [5] of the same molecule?
**A.** 3 nM

**Q.** And the IC50 [6]?
**A.** > 15000 nM

**Q.** What about the IC50 [7] of the same molecule?
**A.** > 15000 nM

**Q.** And the IC50 [8]?
**A.** > 15000 nM

**Q.** What about the clearance [9] of the same molecule?
**A.** 63.3 mL/min/kg

**Q.** And the CL free [10]?
**A.** 1580 mL/min/kg
